Test results reported in patent US20080112899A1, “Carboxamides and Their Use” (priority 2004, published 2008).

Each compound was assayed on trained panel of 4 to 8 people (assay: Cooling intensity by isointensity method, trained panel tasting aqueous solutions versus WS 23). Details: aqueous solutions tasted, compared to aqueous solution of reference WS 23 at 2 ppm.
Assay type: in vivo, human
Protocol: The cooling intensity of the compounds was determined by a trained panel of 4 to 8 people according to the isointensity method as described below.
Aqueous solutions of various concentrations of a chemical compound are prepared and tasted. The cooling intensity of each solution was compared to that of an aqueous solution of the reference compound at 2 ppm, namely N,2,3-trimethyl-2-isopropylbutanamde (WS 23).

Structure (SMILES) | rel. cooling intensity
CC(C)C(C(=O)Nc1ccc(C#N)cc1)C(C)C [Ex. 1, N-(4-cyanophenyl) 2-isopropylisovaleramide] | 1.3
CC(C)C(C)(C(=O)Nc1ccc(C#N)cc1)C(C)C [Ex. 2A, N-(4-Cyanophenyl)2-methyl-2-isopropylisovaleramide] | 1.5
COc1ccc(NC(=O)C(C)(C(C)C)C(C)C)cc1 [Ex. 2B, N-(4-Methoxyphenyl)2-methyl-2-isopropylisovaleramide] | 1.1
CC(C)C(C)(C(=O)Nc1ccc(CC#N)cc1)C(C)C [Ex. 2C, N-(4-Cyanomethyl-phenyl)-2-methyl-2-isopropyl-isovaleramide] | 0.2
COc1ccc(NC(=O)C(C(C)C)C(C)C)cc1 [Ex. 2E, N-(4-Methoxyphenyl)2-isopropylisovaleramide] | 1.1
CC(C)C(C(=O)Nc1ccccc1C#N)C(C)C [Ex. 2F, N-(2-Cyanophenyl)2-isopropylisovaleramide] | 1.7
COc1ccc(NC(=O)C(C)(C(C)C)C(C)C)c(OC)c1 [Ex. 2G] | 0.9
CC(C)C(C)(C(=O)Nc1ccc2c(c1)OCO2)C(C)C [Ex. 2H, N-Benzo[1,3]dioxol-5-yl 2-methyl-2-isopropylisovaleramide] | 0.9
COc1cc(CNC(=O)C(C)(C(C)C)C(C)C)ccc1O [Ex. 2I, N-Vanillyl 2-methyl-2-isopropylisovaleramide] | 0.8
